Laboratory results: the SangsterLogP compilation

| Compound | logP |
| --- | --- |
| CN1C(=O)NC(c2ccccc2)(c2ccccc2)C1=O | 2.28 |
| O=C1NC(Cc2ccccc2)C(=O)N1Cc1ccccc1 (configuration not stated) | 2.84 |
| O=C1NC(Cc2ccccc2)C(=O)N1c1ccccc1 (configuration not stated) | 2.27 |
| CC1NC(=O)NC1=O (configuration not stated) | -0.95 |
| CN1CC(=O)N(c2ccccc2)C1=O | 0.14 |
| CCC1(c2ccccc2)NC(=O)N(C)C1=O (configuration not stated) | 1.69 |
| CC(C)C1NC(=O)NC1=O (configuration not stated) | -0.36 |
| CC(C)CC1NC(=O)NC1=O (configuration not stated) | 0.35 |
| O=C1NC(=O)C(Cc2ccccc2)(Cc2ccccc2)N1 | 2.46 |
| O=C1CNC(=O)N1Cc1ccccc1 | 0.82 |
| O=C1CNC(=O)N1 | -1.53 |
| CCN1C(=O)NC(Cc2ccccc2)C1=O (configuration not stated) | 1.61 |
